Measured values taken from patent US20040043992A1, “Meloxicam for alleviating organ injury during organ operation or transplantation” (Boehringer Ingelheim International GmbH, priority 2002, published 2004).
Read-outs that look alike come from different tables or passages of the source. Square brackets hold non-standard residues; d marks the D form. Peptide text beside a SMILES is read from it. Nle = CCCC[C@H](N)C(=O)O

What was measured:
[1] = test system: ischemia/reperfusion injury during organ operation or transplantation; details: in vivo; cited from earlier work
[2] = test system: livers of NHBDs (Non Heart Beating Donors); test: ischemic in vitro preservation and reperfusion of livers of Non Heart Beating Donors; set-up: species or system Wistar rat; details: meloxicam 4.6 mg/kg body weight added to HTK solution; 60 minutes warm ischemia, 24 hours at 4° C., 45 minutes of reperfusion
Description: A previous (unpublished) study was been performed by the inventors on the ischemic in vitro preservation of livers of NHBDs (Non Heart Beating Donors). The aim of this study was to test the ability of meloxicam to ameliorate the ischemia/reperfusion injury of these livers. The experiments were performed using a Wistar rat model. Cardiac arrest was induced in Wistar rats under anesthesia by phrenotomy. The livers were excised after 60 minutes of warm ischemia, flushed with 20 mL of Ringer's solution containing heparin and subsequently with 60 mL of Histidine-Tryptophane-Cetoglutarate (or HTK) solution and preserved for 24 hours at 4° C. In half of the experiments, meloxicam (4.6 mg/kg body weight) was added to the HTK solution. Reperfusion was carried out in vitro (3 mL/g/min) with oxygenated buffer at 37° C. After 45 minutes of reperfusion, portal venous pressure (PVP) was measured to evaluate vascular conductivity, the enzyme release of alanine aminotransferase (ALT) and […] (GLDH) was measured as indicator of hepatocellular injury, and the bile production and oxygen consumption (VO2) as parameter of functional recovery of the livers. To estimate the impact of oxygen free radicals, the production of malondialdehyde was measured in the hepatic effluent.

[3] = test system: ischemia/reperfusion injury of the liver; test: in vivo warm ischemia (Pringle's maneuver) and reperfusion of the liver in rats; set-up: species or system male Wistar rats; details: for Creatinine / GPT / LDH / TNF-alpha: 30 minutes warm ischemia of the liver, 60 minutes of reperfusion, GdCl3 10 mg/kg 24 hours prior
Description: In the following experiment, the ability of an in vivo treatment with meloxicam to reduce ischemia/reperfusion injury of the liver was assessed.
For this purpose, male Wistar rats (250 g to 280 g body weight) were anesthetized with intraperitoneal application of pentobarbital (50 mg/kg body weight) and atropine (0.05 mg). All animals were subjected to a 30 minutes warm ischemia of the liver (Pringle's maneuver) and 60 minutes of reperfusion after median lapatomtomy.
One group of animals received no additional treatment (Control group). Another group was given 1 mg/kg body weight meloxicam just prior to the operation (COX-2I group). A third group was given 10 mg/kg body weight gadolinium chloride (GdCl3) 24 hours prior to the operation (GdCl3 group). A fourth group was given 10 mg/kg body weight gadolinium chloride 24 hours prior to operation and 1 mg/kg body weight meloxicam just prior to the operation (GdCl3+COX-2I group). Gadolinium chloride provides for a selective depletion of the liver Kupffer cells.
To assess and compare the level of injury in all groups of animals, a measurement of the enzyme release of glutamate pyruvate transaminase (GPT) and lactate dehydrogenase (LDH) was measured as indicator of hepatocellular injury, and the release of creatinine and TNF-alpha as an indicator of inflammation. To quantify the cellular damage on a structural level, histochemistry was performed with HE staining as well as immunohistochemistry using the TUNEL assay to quantify the apoptotic changes of the livers.

[4] = test system: injury associated with ischemia/reperfusion of the brain, liver, kidney, lung, intestine, heart, and pancreas; details: administered 30 minutes prior to an hemorrhagic shock; cited from earlier work
[5] = test system: warm ischemia/reperfusion injury (hepatic parenchymal injury); details: pre- and post-ischemic administration; serum ALT, AST, LDH, HA; cited from earlier work
[6] = test system: liver injuries after Pringle's maneuver; details: cited from earlier work; for number of polymorphonuclear neutrophils, lower than in untreated animals: 1 mg/kg
[7] = meloxicam 1 mg/kg just prior to operation
[8] = 1 mg/kg via the portal vein, 60 minutes warm ischemia

SMILES: CC(=O)Oc1ccccc1C(=O)O [aspirin]
- reduction of ischemia/reperfusion injury during organ operation or transplantation [1]: did not significantly reduce

SMILES: Cc1cnc(NC(=O)C2=C(O)c3ccccc3S(=O)(=O)N2C)s1 [COX-2I, 4-hydroxy-2-methyl-N-(5-methyl-2-thiazolyl)-2H-1,2-benzothiazine-3-carboxamide-1,1-dioxide]
- in vitro preservation of grafts from NHBDs [2]: improves the in vitro preservation of grafts from NHBDs
- production of free oxygen radicals during reperfusion (malondialdehyde in hepatic effluent) [2]: decreased the production of free oxygen radicals during reperfusion
- Creatinine [3, 7]: 0.65 mg/dL
- GPT [3, 7]: 973 Units/liter
- LDH [3, 7]: 6765 Units/liter
- TNF-alpha [3, 7]: 3.5 pg/mL serum
- lower level of GPT compared to the untreated Control group [3, 7]: 3 times
- lower level of LDH compared to the untreated Control group [3, 7]: 4 times
- lower level of TNF-alpha compared to the untreated Control group [3, 7]: 5 times
- lower level of creatinine compared to the untreated Control group [3, 7]: 2 times
- necrotic and apoptotic changes of the liver (HE staining, TUNEL assay) ([3]; meloxicam treated groups, histochemistry): less necrotic as well as less apoptotic changes
- reduction of infiltration of MPO (myloperoxidase) positive cells into the liver after I/R ([3]; myeloperoxidase reaction (Hanker-Yates solution)): ~50%

SMILES: CCCC[C@@H](C=O)NC(=O)[C@H](CC(C)C)NC(=O)[C@H](CC(C)C)NC(C)=O [calpain inhibitor I] (Ac-Leu-Leu-[Nle]-aldehyde)
- injury associated with ischemia/reperfusion of organs [4]: reduces the injury

SMILES: COc1ccc2c(c1)c(CC(=O)O)c(C)n2C(=O)c1ccc(Cl)cc1 [indomethacin]
- reduction of ischemia/reperfusion injury during organ operation or transplantation [1]: did not significantly reduce

SMILES: CC(=N)NCCCC[C@H](N)C(=O)O.Cl.Cl [LNIL, L-N^6-(L-iminoethyl)lysine dihydrochloride]
- injury associated with ischemia/reperfusion of organs [4]: may also contribute to a protective effect

SMILES: [Cl][Gd]([Cl])[Cl] [GdCl3, gadolinium chloride]
- Creatinine [3, 7]: 0.94 mg/dL
- GPT [3, 7]: 1611 Units/liter
- LDH [3, 7]: 12100 Units/liter
- TNF-alpha [3, 7]: 8.05 pg/mL serum

SMILES: CC(=O)c1ccc(NS(C)(=O)=O)c(Oc2ccc(F)cc2F)c1 [FK3311, 4′-acetyl-2′-(2,4-difluorophenoxy)methanesulfonanilide]
- protection against warm ischemia/reperfusion injury [5]: satisfactory protection
- level of serum enzyme activity (GOT, GPT, LDH) relative to untreated animals [6, 8]: about half
- time after reperfusion by which blood flow recovered to the pre-ischemic level [6, 8]: ≤ 30 min
- number of polymorphonuclear neutrophils, lower than in untreated animals ([6]; 1 hour after reperfusion): about 40%
- number of polymorphonuclear neutrophils, lower than in untreated animals ([6]; 6 hours after reperfusion): about 25%
